{"source": "patent US6583333B1", "about": "“Lymphoma-susceptible transgenic mice and methods for studying drug sensitivity of lymphomas” (Cold Spring Harbor Laboratory, priority 1998, dated 2003)", "key": {"[1]": {"tested_on": "Eμ-myc lymphoma cell line L1025", "experiment": "In vitro sensitivity of lymphoma cell lines, viability by trypan blue exclusion", "format": "cell-based, mouse", "conditions": "line L1025 from a resistant tumor, 24-hour treatment, FIG. 8", "description": "Several lymphoma lines have been isolated from Eμ-myc mice in which the response to adriamycin of the original tumor was known. Eμ-myc lymphoma cell lines cultured in vitro were tested for their sensitivity to adriamycin. Lymphocytes were counted. The cells were spun down and resuspended in pre-conditioned B cell media (media that has been on feeder cells for 24 hours) at a concentration of 2×10^6 cells/ml. 10^6 cells were seeded per well of a tissue culture plate, in 0.5 ml. Adriamycin was suspended in pre-conditioned B cell media at twice the final concentration. Final concentrations of adriamycin were 0.25, 0.05, 0.075, 0.1, 0.5 and 1.0 μg/ml. 0.5 of medium was added to each well, to a final volume of 1 ml. Cells were incubated for 24 hours at 37° C. Cells were transferred from the wells to Eppendorf tubes on ice, and centrifuged at 2500 rpm for 5 minutes at 4° C. The medium was poured off the cell pellets, leaving about 200 μl of medium in each tube. One drop of trypan blue dye was added to each tube, and a total of 200 cells per sample were counted under a microscope. Live cells exclude trypan blue and appear white; dead cells take up trypan blue and appear blue.\nL877 has been tested as Eμ-myc/p53^−/−; the other cell lines are derived from Eμ-myc/p53^+ mice and are presumably p53^+/+."}, "[2]": {"tested_on": "Eμ-myc/p53^−/− lymphoma", "experiment": "White blood cell counts of lymphoma-associated leukemia after treatment", "format": "in vivo", "conditions": "Eμ-myc/p53^−/− mouse, 10 mg/kg, 0-24 hours after treatment, FIG. 6, one mouse", "description": "Eμ-myc/p53^+ mice (C57BL/6) and Eμ-myc/p53^−/− (C57BL/6 x 129; p53^−/LOH in FIGS. 6 and 7) with leukemia associated with primary lymphoma, were treated with either adriamycin at 10 mg/kg of body weight or with 6 Gy of whole body gamma-irradiation. Blood samples were taken and white blood cells were counted in a hemocytometer at 0, 4, 8, 12 and 24 hours after treatment. […] The data plotted in FIGS. 6 and 7 are from one treated mouse of each genotype."}, "[3]": {"tested_on": "primary myc-induced lymphomas in Eμ-myc transgenic mice", "experiment": "Response to therapy of primary myc-induced lymphomas (remission/relapse by palpation and blood smears)", "format": "in vivo, mouse", "conditions": "single treatment 10 mg/kg intraperitoneal, FIG. 4", "description": "Eμ-myc transgenic mice were treated with 10 mg/kg body weight adriamycin (maximum tolerated dose) by intraperitoneal injection using adriamycin freshly resuspended in water to a final concentration of 1 mg/ml. Treated mice were monitored for remission and for relapse by palpation and by blood smears to obtain white blood cell counts.\nPalpation is performed by gently feeling the mouse for bumps under the skin, which are enlarged lymph nodes.\nBlood smears are done by collecting blood from the tail artery, and examining a dried droplet of blood which has been smeared on a glass microscope slide to be one cell layer thick at the edge. The blood smear is stained after drying, using LEUKOSTAT™ stain (Fisher Diagnostics cat. # CS43A-C). The blood smear can be mounted with Permount™ histological mounting medium (Fisher Scientific). Slides are viewed under 40X or oil emersion. Blood from mice affected by lymphoma are always compared with blood from mice from a normal mouse drawn at the same time.\nThe numbers of mice used to generate the data in FIG. 4 were 22 (first treatment), 14 (second treatment) and 5 (third treatment)."}, "[4]": {"tested_on": "secondary tumors arising from transplanted L885 cells", "experiment": "Drug sensitivity of transplanted tumor cell line L885, by palpation", "format": "in vivo, mouse", "conditions": "10 mg/kg, 9 secondary tumors vs 22 primary tumors, FIG. 11", "description": "(§1) Eμ-myc lymphomas were cultured using feeder layers (see Example 7). Several of these cell lines were transplanted into syngeneic C57BL/6 recipients by injection of 10^6 cells into the tail vein. Tumor-bearing animals were assessed for response to 10 mg/kg adriamycin therapy, by palpation for tumors."}, "[5]": {"tested_on": "transplanted Eμ-myc lymphoma cells in C57BL/6 mice", "experiment": "Tumor transplantation into syngeneic mice, response to treatment by palpation", "format": "in vivo, mouse", "conditions": "10^6 cells by tail vein into C57BL/6, 10 mg/kg, compared with primary tumors, FIG. 5", "source_text": "Upon discovery of tumors in a Eμ-myc transgenic mouse, lymphoma cells were harvested, and 10^6 cells were immediately transplanted into multiple C57BL/6 mice (Taconic Laboratories) by tail vein injection. Tumors were allowed to form (usually in about two weeks). Treatment with adriamycin was given as in Example 5. […] The results (as assessed by palpation for tumors) plotted in FIG. 5 are from 22 mice with primary tumors, and 10 mice with transplanted tumors."}, "[6]": {"tested_on": "transplanted L1537 cells (homozygous for p53^−)", "experiment": "Drug sensitivity of transplanted tumor cell line L1537", "format": "in vivo, mouse", "conditions": "two C57BL/6 mice, 10 mg/kg", "description": "as §1\nTumor cell line L1537 was derived from an Eμ-myc/p53^+/− lymphoma and was tested as homozygous for p53^−. Tumor cells were transplanted, by the method described above, into two C57BL/6 mice."}, "[7]": {"tested_on": "Eμ-myc lymphomas from p53^+/− mice", "experiment": "Effect of p53 defect on therapy in Eμ-myc/p53^+/− mice", "format": "in vivo, mouse", "conditions": "10 Eμ-myc/p53^+/− mice, 10 mg/kg, FIG. 14", "description": "Since most Eμ-myc lymphomas from p53^+/− mice lose the wild-type p53 allele, it was possible to study the response of essentially p53-deficient tumors in mice that were otherwise hemizygous for p53 and not prone to thymic lymphoma (see strategy in FIG. 13). […] The response of Eμ-myc lymphomas with p53 defects to 10 mg/kg adriamycin therapy resembled that of Eμ-myc/p53^+/+ lymphomas following their second relapse (See FIG. 4)."}, "[8]": {"tested_on": "L700 cell line derived from an Eμ-myc (p53^+) tumor", "experiment": "Detection of caspase activation (biotin-YVAD-amk labelling, blot)", "format": "cell-based, mouse", "conditions": "0.1 μg/ml, 0, 3, 6 or 9 hours, FIG. 10", "description": "Procedures were as published in Faleiro, L., et al., EMBO J. 16:2271-2281, 1997). Isolated L700 cells growing in culture dishes were treated with 0.1 μg/ml adriamycin. After 0, 3, 6 or 9 hours, cell lysates were made in the presence of 10 μM biotin-YVAD-amk to label caspases, and the protein concentrations were determined. Protein samples were run on a 15% acrylamide-0.1% SDS gel. Proteins were transferred from the gel to Immobilon P membrane (Millipore). Membranes were washed in methanol and air dried. Dried, baked membranes were incubated in biotinylated horseradish peroxidase at 25 ng/ml. Labeled proteins were visualized with ECL reagent (Amersham)."}}}
{"smiles": "COc1cccc2c1C(=O)c1c(O)c3c(c(O)c1C2=O)C[C@@](O)(C(=O)CO)C[C@@H]3O[C@H]1C[C@H](N)[C@H](O)[C@H](C)O1", "note": "[adriamycin]", "values": [{"measurement": "sensitivity in cell culture (percent viable cells)", "setting": "[1]", "value": "sensitive in cell culture"}, {"measurement": "sensitivity of lymphoma-associated leukemia (white blood cell counts)", "setting": "[2]", "value": "insensitive"}, {"measurement": "response to therapy (time to relapse by palpation)", "setting": "[3]", "value": "the vast majority of the mice respond to therapy"}, {"measurement": "response of transplanted L885 tumors to therapy", "setting": "[4]", "value": "virtually indistinguishable from that seen in the primary, non-transplanted lymphomas"}, {"measurement": "response of transplanted (secondary) tumors to treatment", "setting": "[5]", "value": "A higher percentage of these secondary tumors failed to respond to treatment"}, {"measurement": "response of transplanted L1537 tumors to therapy", "setting": "[6]", "value": "Both mice failed to respond"}, {"measurement": "response to therapy (percentage of tumor-free mice)", "setting": "[7]", "value": "almost completely refractory to therapy"}, {"measurement": "caspase activation", "setting": "[8]", "value": "caspase activation following drug treatment"}]}
